The target of assay [1] is T1, PI3 Kinase alpha (p110 alpha/p85 alpha) (Homo sapiens, UniProt P42336).
T1 construct: purchased Invitrogen
The assay is described as follows: PI3K TR-FRET assay (Transcreener ADP2). Format: biochemical. The conditions noted are these: for IC50: PI3K alpha, 1 μM ATP, 50 μM PIP2. The gist of the method: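 p110α/p85α with diC8 PIP2 (50 μM) and 1 μM ATP in 50 mM HEPES pH 7.4, MgCl2, CHAPS, DTT, EGTA; 1 h at room temperature. ADP detected by Transcreener ADP2 TR-FRET (665/615 nm ratio), converted to product via ADP-ATP standard curve; IC50 from four-parameter fit of % inhibition.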

In the next assay the target is T2, Recombinant mTOR (FRAP1) (Homo sapiens, UniProt P42345).
T2 construct: purchased Invitrogen
T2 sequence (P42345 1360-2549 limits assumed): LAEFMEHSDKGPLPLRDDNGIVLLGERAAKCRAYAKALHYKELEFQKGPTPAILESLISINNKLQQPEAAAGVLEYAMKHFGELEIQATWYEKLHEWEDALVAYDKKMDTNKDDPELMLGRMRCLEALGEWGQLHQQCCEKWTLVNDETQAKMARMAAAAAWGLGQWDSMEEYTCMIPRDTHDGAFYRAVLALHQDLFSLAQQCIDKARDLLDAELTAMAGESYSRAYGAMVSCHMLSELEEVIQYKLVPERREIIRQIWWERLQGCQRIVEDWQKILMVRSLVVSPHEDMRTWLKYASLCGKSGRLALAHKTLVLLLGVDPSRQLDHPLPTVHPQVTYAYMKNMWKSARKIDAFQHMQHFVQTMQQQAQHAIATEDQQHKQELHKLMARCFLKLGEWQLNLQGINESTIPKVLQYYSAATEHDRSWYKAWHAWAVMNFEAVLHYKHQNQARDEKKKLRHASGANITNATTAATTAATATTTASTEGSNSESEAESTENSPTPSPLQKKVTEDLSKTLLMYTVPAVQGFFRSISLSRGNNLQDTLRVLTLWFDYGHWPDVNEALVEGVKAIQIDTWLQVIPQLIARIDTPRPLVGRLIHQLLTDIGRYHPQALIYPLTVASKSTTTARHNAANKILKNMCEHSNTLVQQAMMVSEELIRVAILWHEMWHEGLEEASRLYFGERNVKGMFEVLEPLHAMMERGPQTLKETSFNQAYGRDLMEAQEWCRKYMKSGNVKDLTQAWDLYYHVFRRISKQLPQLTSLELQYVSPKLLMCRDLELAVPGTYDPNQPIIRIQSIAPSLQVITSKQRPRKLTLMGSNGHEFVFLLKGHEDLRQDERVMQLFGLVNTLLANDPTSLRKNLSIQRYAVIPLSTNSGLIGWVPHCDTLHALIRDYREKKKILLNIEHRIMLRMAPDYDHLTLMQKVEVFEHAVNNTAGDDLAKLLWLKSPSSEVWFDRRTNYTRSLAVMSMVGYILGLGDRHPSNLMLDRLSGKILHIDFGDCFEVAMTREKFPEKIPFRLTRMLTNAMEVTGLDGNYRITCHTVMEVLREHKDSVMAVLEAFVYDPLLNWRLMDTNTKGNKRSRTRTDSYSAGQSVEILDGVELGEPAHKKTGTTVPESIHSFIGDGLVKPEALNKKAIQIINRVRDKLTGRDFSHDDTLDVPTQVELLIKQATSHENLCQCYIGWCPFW
Description: mTOR in vitro kinase assay (TR-FRET, phosphorylation of GFP-4E-BP1). Format: biochemical. Particulars: for IC50: 8 μM ATP, 400 nM GFP-4E-BP1; for inhibition at 1 µM: 1 uM compound, read-out: mTOR % Inhib@1 uM. In a few lines: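 Recombinant human mTOR with GFP-4E-BP1 substrate at 400 nM and 8 μM ATP, 1 h at room temperature, then quenched with 10 mM EDTA plus 2 nM Tb-anti-p4E-BP1 (pThr46) for 1 h. TR-FRET 520/486 nm ratio fitted against inhibitor concentration by four-parameter sigmoidal regression.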

T1 sequence (P42336 whole entry): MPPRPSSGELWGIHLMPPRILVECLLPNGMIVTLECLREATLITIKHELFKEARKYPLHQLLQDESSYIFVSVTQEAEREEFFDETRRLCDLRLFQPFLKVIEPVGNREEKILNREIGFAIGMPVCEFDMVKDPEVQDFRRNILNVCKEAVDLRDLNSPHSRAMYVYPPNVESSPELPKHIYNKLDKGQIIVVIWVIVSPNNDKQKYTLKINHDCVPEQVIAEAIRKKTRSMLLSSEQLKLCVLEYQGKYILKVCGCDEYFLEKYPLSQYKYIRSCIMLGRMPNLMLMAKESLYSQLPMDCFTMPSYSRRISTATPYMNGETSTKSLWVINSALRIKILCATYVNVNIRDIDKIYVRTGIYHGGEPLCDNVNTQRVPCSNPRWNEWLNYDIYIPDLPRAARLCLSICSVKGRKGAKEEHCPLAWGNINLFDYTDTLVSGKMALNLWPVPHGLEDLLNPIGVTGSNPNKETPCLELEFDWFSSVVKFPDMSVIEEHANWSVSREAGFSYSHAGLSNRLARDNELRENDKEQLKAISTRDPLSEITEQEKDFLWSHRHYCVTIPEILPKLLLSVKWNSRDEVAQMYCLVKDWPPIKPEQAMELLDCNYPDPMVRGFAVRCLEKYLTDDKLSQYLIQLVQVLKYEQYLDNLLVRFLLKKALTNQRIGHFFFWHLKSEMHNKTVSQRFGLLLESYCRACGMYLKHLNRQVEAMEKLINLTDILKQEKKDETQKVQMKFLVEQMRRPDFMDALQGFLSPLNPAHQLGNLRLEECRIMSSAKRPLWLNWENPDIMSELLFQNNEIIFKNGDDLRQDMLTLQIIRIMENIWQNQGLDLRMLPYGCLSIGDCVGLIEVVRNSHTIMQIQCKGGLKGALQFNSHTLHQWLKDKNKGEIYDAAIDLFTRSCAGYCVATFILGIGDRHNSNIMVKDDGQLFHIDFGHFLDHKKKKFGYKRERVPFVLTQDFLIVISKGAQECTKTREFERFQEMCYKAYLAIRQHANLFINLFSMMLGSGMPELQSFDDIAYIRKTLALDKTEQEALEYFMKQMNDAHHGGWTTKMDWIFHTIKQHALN
T1 sequence (P27986 whole entry partner): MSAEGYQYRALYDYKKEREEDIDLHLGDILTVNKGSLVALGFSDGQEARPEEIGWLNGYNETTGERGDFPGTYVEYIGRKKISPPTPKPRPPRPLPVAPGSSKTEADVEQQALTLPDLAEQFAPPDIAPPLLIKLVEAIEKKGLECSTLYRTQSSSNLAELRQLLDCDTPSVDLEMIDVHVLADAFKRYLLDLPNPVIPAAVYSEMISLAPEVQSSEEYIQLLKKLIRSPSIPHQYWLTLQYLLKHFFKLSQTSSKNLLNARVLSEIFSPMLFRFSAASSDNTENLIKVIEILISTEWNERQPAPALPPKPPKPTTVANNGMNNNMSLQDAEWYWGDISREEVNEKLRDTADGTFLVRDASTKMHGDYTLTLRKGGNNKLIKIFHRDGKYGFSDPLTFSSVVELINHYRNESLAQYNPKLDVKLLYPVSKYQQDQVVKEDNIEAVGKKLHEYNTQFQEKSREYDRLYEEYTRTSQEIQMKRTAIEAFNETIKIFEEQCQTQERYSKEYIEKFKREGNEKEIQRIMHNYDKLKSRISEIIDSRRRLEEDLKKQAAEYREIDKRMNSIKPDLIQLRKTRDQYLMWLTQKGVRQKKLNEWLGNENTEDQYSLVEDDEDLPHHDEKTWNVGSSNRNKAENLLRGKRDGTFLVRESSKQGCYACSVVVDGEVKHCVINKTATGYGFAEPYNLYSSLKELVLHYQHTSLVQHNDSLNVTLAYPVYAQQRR

Turning to `C[C@@H]1CN(c2nc(Oc3ccc(C(=O)N(C)C)cc3F)nc(-c3ccc4[nH]ncc4c3)n2)[C@H](C)CO1` [Compound 10162, 4-(4-(1H-indazol-5-yl)-6-((2R,5R)-2,5-dimethylmorpholino)-1,3,5-triazin-2-yloxy)-3-fluoro-N,N-dimethylbenzamide], the IC50 is above 10000 nM in assay [1] and above 1000 nM on Recombinant mTOR (FRAP1).

`CN(C)C(=O)c1cccc(Oc2nc(-c3cnc(N)s3)nc(N3CCOCC3)n2)c1` [Compound 10195, 3-((4-(2-aminothiazol-5-yl)-6-morpholino-1,3,5-triazin-2-yl)oxy)-N,N-dimethylbenzamide] yielded an IC50 in assay [1] below 1000 nM. Also, on Recombinant mTOR (FRAP1), the inhibition at 1 µM was below 50%.

In the case of `C[C@H]1COCCN1c1nc(Oc2ccc(C(=O)N(C)C)cc2F)nc(-c2cnc(N)s2)n1` [Compound 10010, (S)-4-(4-(2-aminothiazol-5-yl)-6-(3-methylmorpholino)-1,3,5-triazin-2-yloxy)-3-fluoro-N,N-dimethylbenzamide], the inhibition at 1 µM in assay [1] (1 uM compound, read-out: PI3K % Inhib@1 uM) was above 50%; on Recombinant mTOR (FRAP1), above 50%. Besides, the IC50 (in assay [1]; on Recombinant mTOR (FRAP1)) was below 1000 nM each time.

Take `CN(C)C(=O)c1ccc(Oc2nc(-c3cnc4[nH]ccc4c3)nc(N3CCOCC3)n2)c(F)c1` [Compound 10158, 4-(4-morpholino-6-(1H-pyrrolo[2,3-b]pyridin-5-yl)-1,3,5-triazin-2-yloxy)-3-fluoro-N,N-dimethylbenzamide]: the IC50 (in assay [1]; at Recombinant mTOR (FRAP1)) was below 1000 nM in each case.

Turning to `NC(=O)c1ccc(Oc2nc(-c3cnc(N)s3)nc(N3CCOCC3)n2)cc1` [Compound 10201, 4-((4-(2-aminothiazol-5-yl)-6-morpholino-1,3,5-triazin-2-yl)oxy)benzamide], the IC50 in assay [1] was below 1000 nM. The inhibition at 1 µM on Recombinant mTOR (FRAP1) is below 50%.

Consider `CN(C)C(=O)c1ccc(Oc2nc(-c3cnc(N)s3)nc(N3CCCOCC3)n2)cc1` [Compound 10192, 4-((4-(2-aminothiazol-5-yl)-6-(1,4-oxazepan-4-yl)-1,3,5-triazin-2-yl)oxy)-N,N-dimethylbenzamide], for which the IC50 (in assay [1]; on Recombinant mTOR (FRAP1)) was above 1000 nM in each case. Moreover, the inhibition at 1 µM at Recombinant mTOR (FRAP1) is below 50%.

Molecule `CC(C(=O)N(C)C)c1ccc(Oc2nc(-c3cnc(N)s3)nc(N3CCOCC3)n2)cc1` (stereo not shown) [Compound 10115, 2-(4-(4-(2-aminothiazol-5-yl)-6-morpholino-1,3,5-triazin-2-yloxy)phenyl)-N,N-dimethylpropanamide] gave an IC50 in assay [1] below 1000 nM. The inhibition at 1 µM at Recombinant mTOR (FRAP1) is above 50%.

`CN(C)C(=O)c1ccc(Nc2nc(-c3cnc(N)s3)nc(N3CCOCC3)n2)cc1` [Compound 10196, 4-((4-(2-aminothiazol-5-yl)-6-morpholino-1,3,5-triazin-2-yl)amino)-N,N-dimethylbenzamide] yielded an IC50 in assay [1] below 1000 nM. Besides, the inhibition at 1 µM at Recombinant mTOR (FRAP1) was below 50%.

These data come from US9630958B2, “Triazine compounds” (Sphaera Pharma Pte. Ltd., priority 2012, dated 2017).
